The subject of this assay is primary microglia from wild-type (WT) mice. It counts as cell-based.

Structures are written as SMILES.

Turning to `C=C1[C@@H](C)[C@H]2[C@H](Cc3ccccc3)NC(=O)[C@]23[C@H](OC(C)=O)/C=C/[C@@](C)(O)C(=O)[C@@H](C)C/C=C/[C@H]3[C@@H]1O` [cytochalasin D, Cytochalasin D], the “effect of cytochalasin D on Aβ uptake” value is recorded as “reduced”.

The values above are taken from paper PMC11497331 (Glia, 2021).
